In PubChem BioAssay (NCI):
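How tested: cells in 96-well plates exposed to compound for 48 hours at five concentrations. Here, GI50 denotes the concentration required for 50% inhibition of growth. TGI marks complete inhibition of growth.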

Legend:
Test in all cases: NCI tumour cell line growth inhibition, 48 h
NCI-H23 lung = tested on: NCI-H23 lung
NCI/ADR-RES ovarian = tested on: NCI/ADR-RES ovarian
SF-295 CNS = tested on: SF-295 CNS
HOP-62 NSCLC = tested on: HOP-62 NSCLC
CAKI-1 renal = tested on: CAKI-1 renal
NCI-H522 lung = tested on: NCI-H522 lung
ACHN renal = tested on: ACHN renal
MDA-MB-231 breast = tested on: MDA-MB-231 breast
U251 CNS = tested on: U251 CNS
BT-549 breast = tested on: BT-549 breast

Structure (SMILES) | GI50 (NCI-H23 lung) | TGI (NCI-H23 lung) | GI50 (NCI/ADR-RES ovarian) | TGI (NCI/ADR-RES ovarian) | GI50 (SF-295 CNS) | TGI (SF-295 CNS) | GI50 (HOP-62 NSCLC) | TGI (HOP-62 NSCLC) | GI50 (CAKI-1 renal) | TGI (CAKI-1 renal) | GI50 (NCI-H522 lung) | TGI (NCI-H522 lung) | GI50 (ACHN renal) | TGI (ACHN renal) | GI50 (MDA-MB-231 breast) | TGI (MDA-MB-231 breast) | GI50 (U251 CNS) | TGI (U251 CNS) | GI50 (BT-549 breast) | TGI (BT-549 breast)
COc1cc(C)ccc1C(=O)c1ccc(C)cc1OC | 6.31 µM | > 100 µM | 1.31 µM | 8.14 µM | 1.95 µM | 43.4 µM | 3.11 µM | > 100 µM | 2300 nM | 92.3 µM | 1760 nM | 4.96 µM | 8.21 µM | > 100 µM | 7.58 µM | > 100 µM | 3060 nM | > 100 µM | 4230 nM | > 100 µM
C=C1CCC2C3(C)COC(C)(C)OC3CCC2(C)C1C/C=C1/C(=O)OCC1OC(C)=O (centres undefined) | 4.34 µM | 16.1 µM | 3.06 µM | 11.1 µM | 11.5 µM | 25.9 µM | 11.9 µM | 25 µM | 4920 nM | 13 µM | 476 nM | 2 µM | 3.12 µM | 10.5 µM | 7.07 µM | 22.6 µM | 2690 nM | 9.31 µM | 2330 nM | 6.79 µM
CC(=O)c1c(C(F)(F)F)n([O-])c2ccccc2[n+]1=O | 1 µM | 2.43 µM | 1.49 µM | 2.93 µM | 1.07 µM | 4.53 µM | 2.34 µM | 11.9 µM | 1210 nM | 3.8 µM | 2460 nM | > 100 µM | 1.05 µM | 12.3 µM | 1.27 µM | 3.61 µM | 2170 nM | 14.5 µM | 2480 nM | 9.06 µM
O=C(Oc1cccnc1)c1cccnc1Nc1ccnc(C(F)(F)F)c1 | 6.38 µM | > 100 µM | > 100 µM | > 100 µM | 44.4 µM | > 100 µM | 13.7 µM | 36 µM | 4730 nM | 30.2 µM | 14500 nM | > 100 µM | 21.7 µM | 66 µM | 14.1 µM | > 100 µM | 14300 nM | 47.3 µM | 5200 nM | > 100 µM
CNC(=S)Nc1ccc(OC)c2ccccc12 |  | > 10 µM |  | > 10 µM |  | 5.77 µM |  | > 10 µM |  | > 10 µM |  | > 10 µM |  | > 10 µM |  | > 10 µM |  | > 10 µM |  | > 10 µM
IC[P+]1(c2ccccc2)CCCC1 |  | > 100 µM |  |  |  | > 100 µM |  | > 100 µM |  |  |  | 21.6 µM |  | > 100 µM |  |  |  | 29.4 µM |  | 
Cn1c(=O)c(N=Nc2c(=O)n(C)c(=O)n3c2[nH]c2ccccc23)c2[nH]c3ccccc3n2c1=O |  | > 100 µM |  |  |  | > 100 µM |  | > 100 µM |  | > 100 µM |  | > 100 µM |  | > 100 µM |  |  |  | > 100 µM |  | 
COc1ccc2nccc(C3=CCC4CCN(C(=O)c5ccccc5)C3C4)c2c1 (centres undefined) |  | > 100 µM |  |  |  | > 100 µM |  | > 100 µM |  | > 100 µM |  | > 100 µM |  |  |  |  |  | > 100 µM |  | 
O=c1ncccn1[C@@H]1O[C@H](CO)[C@H](O)C1O (some centres undefined) |  | > 100 µM |  |  |  | > 100 µM |  | > 100 µM |  | > 100 µM |  | > 100 µM |  | > 100 µM |  |  |  | > 100 µM |  | 
CO/N=C(\COc1ccc2c(c1)[nH]c1ccccc12)c1ccc(OC)cc1 | 32.2 µM | > 100 µM | > 100 µM | > 100 µM | 13.6 µM | 99.2 µM | 6.26 µM | 64 µM |  |  | 49100 nM | > 100 µM | 18.8 µM | > 100 µM | > 100 µM | > 100 µM | 15200 nM | > 100 µM | > 100000 nM | > 100 µM
C=C(c1ccccc1)C1(O)CCCCC1N (centres undefined) |  | > 100 µM |  |  |  | > 100 µM |  | > 100 µM |  | > 100 µM |  | > 100 µM |  | > 100 µM |  |  |  | > 100 µM |  | 
CCOC(=O)NC(=O)c1cn(CCN2CCN(C(=O)NCCCCCCNC(=O)N3CCN(CCn4cc(C(=O)NC(=O)OCC)c(=O)[nH]c4=O)CC3)CC2)c(=O)[nH]c1=O |  | > 100 µM |  |  |  | > 100 µM |  | > 100 µM |  |  |  | > 100 µM |  | > 100 µM |  |  |  | > 100 µM |  | 
CN(C(=O)/C=C/c1ccccc1)C1C2CN3CCC(O2)C13 (centres undefined) |  | > 100 µM |  |  |  | > 100 µM |  | > 100 µM |  | > 100 µM |  | > 100 µM |  | > 100 µM |  |  |  | > 100 µM |  | 
Cc1c(OC(C)C(=O)O)ccc2c(-c3ccccc3)cc(=O)oc12 (centres undefined) |  | > 100 µM |  |  |  | > 100 µM |  | > 100 µM |  | > 100 µM |  | > 100 µM |  | > 100 µM |  |  |  | > 100 µM |  | 
CC(=O)OCc1c2ccccc2c(C)c2c1cc(F)c1ccccc12 |  | 68.4 µM |  |  |  | > 100 µM |  | > 100 µM |  | 98 µM |  | 25.6 µM |  | 46.9 µM |  |  |  | 58.8 µM |  | 
Cn1ccnc1CCc1c(Cl)cccc1Cl |  | > 100 µM |  |  |  | > 100 µM |  | > 100 µM |  | > 100 µM |  | > 100 µM |  | > 100 µM |  |  |  | > 100 µM |  | 
O=C1C2C3C=C4c5ccccc5N(c5ccccc5)C4(C2C(=O)N1c1ccccc1)C1C(=O)N(c2ccccc2)C(=O)C31 (centres undefined) |  | > 100 µM |  |  |  | > 100 µM |  | > 100 µM |  | > 100 µM |  |  |  | > 100 µM |  |  |  | > 100 µM |  | 
N#C[Se]Cc1cc(-c2ccccc2)n(-c2ccc(S(N)(=O)=O)cc2)n1 | 0.495 µM | 2.55 µM | 5.51 µM | 40 µM | 0.444 µM | 2.48 µM |  |  | 2070 nM | 5.24 µM | 2140 nM | 5.55 µM | 1.98 µM | 4.22 µM | 0.912 µM | 3.12 µM | 544 nM | 1.78 µM | 1680 nM | 4.55 µM
